In ChEMBL document CHEMBL2401682, “Evaluation of Jatropha isabelli natural products and their synthetic analogs as potential antimalarial therapeutic agents” (Eur J Med Chem, 2013):

The molecules below were run on HEK293 (assay: Cytotoxicity against HEK293 cells after 72 hrs by celltiter-glo assay). Settings: Homo sapiens, HEK293, 72 h.
Assay type: cell-based

**Q.** `C/C1=C/C2=C[C@H](C)C[C@@]23O[C@]2(CC(C)(C)[C@@H](OC(C)C)[C@@H]2C1=O)[C@@H](C)C3=O` was tested. Which EC50 did it give?
**A.** 26 µM

**Q.** Which EC50 does the source give for `C=C1CC[C@H]2[C@@H](c3c(C)c(OC(C)=O)c4c(c31)C(=O)C(C)C4)C2(C)C` (stereo partly drawn) here?
**A.** 26 µM

**Q.** With `C[C@@H]1CC[C@H]2CC3=C(C(=O)O)CC[C@@]31C2(C)C` as the molecule, how does the EC50 read?
**A.** 26 µM

**Q.** How did the EC50 turn out when `COC(=O)C1=C2C[C@@H]3CC[C@@H](C)[C@]2(CC1)C3(C)C` was run?
**A.** 26 µM

**Q.** For `C[C@@H]1CC[C@H]2CC3=C(C=O)CC[C@@]31C2(C)C`, which EC50 is on record?
**A.** 26 µM

**Q.** For `C[C@@H]1CC[C@H]2CC3=C(CO)CC[C@@]31C2(C)C`, which EC50 is on record?
**A.** 26 µM

**Q.** Which EC50 does the source give for `C[C@@H]1CC[C@H]2CC3C(=O)CC[C@@]31C2(C)C` (stereo partly drawn) here?
**A.** 26 µM

**Q.** With `CCOC(=O)CNC(=O)[C@H](CS[C@H]1[C@@H]2C(=O)/C(C)=C\C3=C[C@H](C)C[C@@]34O[C@]2(CC1(C)C)[C@@H](C)C4=O)NC(=O)CC[C@H](N)C(=O)O` as the molecule, how does the EC50 read?
**A.** 26 µM

**Q.** For `C[C@@H]1C[C@@]23O[C@@]45CC(C)(C)[C@@H](Sc6ccccc6)[C@@H]4C(=O)C(C)(C=C2[C@H]1Sc1ccccc1)[C@]3(O)[C@@H]5C` (stereo partly drawn), which EC50 is on record?
**A.** 26 µM

The molecules below were run on BJ (assay: Cytotoxicity against human BJ cells after 72 hrs by celltiter-glo assay). Settings: not given.
Assay type: cell-based

**Q.** For `C/C1=C/C2=C[C@H](C)C[C@@]23O[C@]2(CC(C)(C)[C@@H](OC(C)C)[C@@H]2C1=O)[C@@H](C)C3=O`, which EC50 is on record?
**A.** 26 µM

**Q.** Which EC50 does the source give for `C=C1CC[C@H]2[C@@H](c3c(C)c(OC(C)=O)c4c(c31)C(=O)C(C)C4)C2(C)C` (stereo partly drawn) here?
**A.** 26 µM

**Q.** Which EC50 does the source give for `COC(=O)C1=C2C[C@@H]3CC[C@@H](C)[C@]2(CC1)C3(C)C` here?
**A.** 26 µM

**Q.** How did the EC50 turn out when `C[C@@H]1CC[C@H]2CC3=C(C=O)CC[C@@]31C2(C)C` was run?
**A.** 26 µM

**Q.** How did the EC50 turn out when `C[C@@H]1CC[C@H]2CC3=C(CO)CC[C@@]31C2(C)C` was run?
**A.** 26 µM

**Q.** `C[C@@H]1CC[C@H]2CC3C(=O)CC[C@@]31C2(C)C` (stereo partly drawn) was tested. Which EC50 did it give?
**A.** 26 µM

**Q.** How did the EC50 turn out when `CCOC(=O)CNC(=O)[C@H](CS[C@H]1[C@@H]2C(=O)/C(C)=C\C3=C[C@H](C)C[C@@]34O[C@]2(CC1(C)C)[C@@H](C)C4=O)NC(=O)CC[C@H](N)C(=O)O` was run?
**A.** 12.5 µM

**Q.** With `C[C@@H]1C[C@@]23O[C@@]45CC(C)(C)[C@@H](Sc6ccccc6)[C@@H]4C(=O)C(C)(C=C2[C@H]1Sc1ccccc1)[C@]3(O)[C@@H]5C` (stereo partly drawn) as the molecule, how does the EC50 read?
**A.** 26 µM

These molecules were tested on HepG2 (assay: Cytotoxicity against human HepG2 cells after 72 hrs by celltiter-glo assay). Settings: HepG2, 72 h.
Assay type: cell-based

**Q.** For `C/C1=C/C2=C[C@H](C)C[C@@]23O[C@]2(CC(C)(C)[C@@H](OC(C)C)[C@@H]2C1=O)[C@@H](C)C3=O`, which EC50 is on record?
**A.** 26 µM

**Q.** `C=C1CC[C@H]2[C@@H](c3c(C)c(OC(C)=O)c4c(c31)C(=O)C(C)C4)C2(C)C` (stereo partly drawn) was tested. Which EC50 did it give?
**A.** 26 µM

**Q.** With `C[C@@H]1CC[C@H]2CC3=C(C(=O)O)CC[C@@]31C2(C)C` as the molecule, how does the EC50 read?
**A.** 26 µM

**Q.** With `COC(=O)C1=C2C[C@@H]3CC[C@@H](C)[C@]2(CC1)C3(C)C` as the molecule, how does the EC50 read?
**A.** 26 µM

**Q.** Which EC50 does the source give for `C[C@@H]1CC[C@H]2CC3=C(C=O)CC[C@@]31C2(C)C` here?
**A.** 26 µM

**Q.** How did the EC50 turn out when `C[C@@H]1CC[C@H]2CC3=C(CO)CC[C@@]31C2(C)C` was run?
**A.** 26 µM

**Q.** Which EC50 does the source give for `C[C@@H]1CC[C@H]2CC3C(=O)CC[C@@]31C2(C)C` (stereo partly drawn) here?
**A.** 26 µM

**Q.** With `CCOC(=O)CNC(=O)[C@H](CS[C@H]1[C@@H]2C(=O)/C(C)=C\C3=C[C@H](C)C[C@@]34O[C@]2(CC1(C)C)[C@@H](C)C4=O)NC(=O)CC[C@H](N)C(=O)O` as the molecule, how does the EC50 read?
**A.** 26 µM

**Q.** `C[C@@H]1C[C@@]23O[C@@]45CC(C)(C)[C@@H](Sc6ccccc6)[C@@H]4C(=O)C(C)(C=C2[C@H]1Sc1ccccc1)[C@]3(O)[C@@H]5C` (stereo partly drawn) was tested. Which EC50 did it give?
**A.** 26 µM

What follows are molecules tested on Plasmodium falciparum (assay: Antimalarial activity against chloroquine-sensitive Plasmodium falciparum 3D7 infected in O-positive erythrocytes assessed as parasite growth inhibition after 72 hrs by DNA staining-based assay). Settings: 3D7, 72 h.
Assay type: functional, organism-based

**Q.** Which EC50 does the source give for `C/C1=C/C2=C[C@H](C)C[C@@]23O[C@]2(CC(C)(C)[C@@H](OC(C)C)[C@@H]2C1=O)[C@@H](C)C3=O` here?
**A.** 15 µM

**Q.** `C=C1CC[C@H]2[C@@H](c3c(C)c(OC(C)=O)c4c(c31)C(=O)C(C)C4)C2(C)C` (stereo partly drawn) was tested. Which EC50 did it give?
**A.** 15 µM

**Q.** For `C[C@@H]1CC[C@H]2CC3=C(C(=O)O)CC[C@@]31C2(C)C`, which EC50 is on record?
**A.** 15 µM

**Q.** Which EC50 does the source give for `COC(=O)C1=C2C[C@@H]3CC[C@@H](C)[C@]2(CC1)C3(C)C` here?
**A.** 15 µM

**Q.** `C[C@@H]1CC[C@H]2CC3=C(C=O)CC[C@@]31C2(C)C` was tested. Which EC50 did it give?
**A.** 15 µM

**Q.** With `C[C@@H]1CC[C@H]2CC3=C(CO)CC[C@@]31C2(C)C` as the molecule, how does the EC50 read?
**A.** 15 µM

**Q.** For `C[C@@H]1CC[C@H]2CC3C(=O)CC[C@@]31C2(C)C` (stereo partly drawn), which EC50 is on record?
**A.** 15 µM

**Q.** With `CCOC(=O)CNC(=O)[C@H](CS[C@H]1[C@@H]2C(=O)/C(C)=C\C3=C[C@H](C)C[C@@]34O[C@]2(CC1(C)C)[C@@H](C)C4=O)NC(=O)CC[C@H](N)C(=O)O` as the molecule, how does the EC50 read?
**A.** 15 µM

**Q.** Which EC50 does the source give for `C[C@@H]1C[C@@]23O[C@@]45CC(C)(C)[C@@H](Sc6ccccc6)[C@@H]4C(=O)C(C)(C=C2[C@H]1Sc1ccccc1)[C@]3(O)[C@@H]5C` (stereo partly drawn) here?
**A.** 6.45 µM

Each molecule was assayed on Plasmodium falciparum (assay: Antimalarial activity against chloroquine and pyrimethamine-resistant Plasmodium falciparum K1 infected in O-positive erythrocytes assessed as parasite growth inhibition after 72 hrs by DNA staining-based assay). Settings: K1, 72 h.
Assay type: functional, organism-based

**Q.** With `C/C1=C/C2=C[C@H](C)C[C@@]23O[C@]2(CC(C)(C)[C@@H](OC(C)C)[C@@H]2C1=O)[C@@H](C)C3=O` as the molecule, how does the EC50 read?
**A.** 15 µM

**Q.** `C=C1CC[C@H]2[C@@H](c3c(C)c(OC(C)=O)c4c(c31)C(=O)C(C)C4)C2(C)C` (stereo partly drawn) was tested. Which EC50 did it give?
**A.** 6.31 µM

**Q.** For `C[C@@H]1CC[C@H]2CC3=C(C(=O)O)CC[C@@]31C2(C)C`, which EC50 is on record?
**A.** 15 µM

**Q.** `COC(=O)C1=C2C[C@@H]3CC[C@@H](C)[C@]2(CC1)C3(C)C` was tested. Which EC50 did it give?
**A.** 15 µM

**Q.** With `C[C@@H]1CC[C@H]2CC3=C(C=O)CC[C@@]31C2(C)C` as the molecule, how does the EC50 read?
**A.** 15 µM

**Q.** With `C[C@@H]1CC[C@H]2CC3=C(CO)CC[C@@]31C2(C)C` as the molecule, how does the EC50 read?
**A.** 15 µM

**Q.** How did the EC50 turn out when `C[C@@H]1CC[C@H]2CC3C(=O)CC[C@@]31C2(C)C` (stereo partly drawn) was run?
**A.** 15 µM

**Q.** How did the EC50 turn out when `CCOC(=O)CNC(=O)[C@H](CS[C@H]1[C@@H]2C(=O)/C(C)=C\C3=C[C@H](C)C[C@@]34O[C@]2(CC1(C)C)[C@@H](C)C4=O)NC(=O)CC[C@H](N)C(=O)O` was run?
**A.** 15 µM

**Q.** With `C[C@@H]1C[C@@]23O[C@@]45CC(C)(C)[C@@H](Sc6ccccc6)[C@@H]4C(=O)C(C)(C=C2[C@H]1Sc1ccccc1)[C@]3(O)[C@@H]5C` (stereo partly drawn) as the molecule, how does the EC50 read?
**A.** 5.57 µM

These molecules were tested on Raji (assay: Cytotoxicity against human Raji cells after 72 hrs by celltiter-glo assay). Settings: not given.
Assay type: cell-based

**Q.** How did the EC50 turn out when `C/C1=C/C2=C[C@H](C)C[C@@]23O[C@]2(CC(C)(C)[C@@H](OC(C)C)[C@@H]2C1=O)[C@@H](C)C3=O` was run?
**A.** 26 µM

**Q.** `C=C1CC[C@H]2[C@@H](c3c(C)c(OC(C)=O)c4c(c31)C(=O)C(C)C4)C2(C)C` (stereo partly drawn) was tested. Which EC50 did it give?
**A.** 26 µM

**Q.** For `C[C@@H]1CC[C@H]2CC3=C(C(=O)O)CC[C@@]31C2(C)C`, which EC50 is on record?
**A.** 26 µM

**Q.** With `COC(=O)C1=C2C[C@@H]3CC[C@@H](C)[C@]2(CC1)C3(C)C` as the molecule, how does the EC50 read?
**A.** 26 µM

**Q.** Which EC50 does the source give for `C[C@@H]1CC[C@H]2CC3=C(C=O)CC[C@@]31C2(C)C` here?
**A.** 26 µM

**Q.** For `C[C@@H]1CC[C@H]2CC3=C(CO)CC[C@@]31C2(C)C`, which EC50 is on record?
**A.** 26 µM

**Q.** With `C[C@@H]1CC[C@H]2CC3C(=O)CC[C@@]31C2(C)C` (stereo partly drawn) as the molecule, how does the EC50 read?
**A.** 26 µM

**Q.** For `CCOC(=O)CNC(=O)[C@H](CS[C@H]1[C@@H]2C(=O)/C(C)=C\C3=C[C@H](C)C[C@@]34O[C@]2(CC1(C)C)[C@@H](C)C4=O)NC(=O)CC[C@H](N)C(=O)O`, which EC50 is on record?
**A.** 6.09 µM

**Q.** For `C[C@@H]1C[C@@]23O[C@@]45CC(C)(C)[C@@H](Sc6ccccc6)[C@@H]4C(=O)C(C)(C=C2[C@H]1Sc1ccccc1)[C@]3(O)[C@@H]5C` (stereo partly drawn), which EC50 is on record?
**A.** 26 µM
